According to patent US11834453B2, “Substituted pyrimido[5,4-d]pyrimidines as HER2 inhibitors” (Array BioPharma Inc., priority 2020, dated 2023):
Where two headings read alike, the source gives them in different places.

Legend:
[1] = target: ErbB2 WT (Homo sapiens (Human), UniProt P04626); assay: ErbB enzyme assay (CisBio HTRF KinEASE-TK), Assay 2; assay type: biochemical
Procedure, shortened: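 ErbB2 phosphorylates 250 nM biotin-TK substrate at 1 mM ATP in 25 mM HEPES pH 7.4, 10 mM MgCl2, 0.01% Triton X-100 and 2% DMSO, for 30 min at 22 °C. Product is detected by HTRF with Sa-XL665 and TK-Ab-Cryptate. Percent of control is set by DMSO-only wells and pre-quenched wells.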

[2] = target: EGFR (Homo sapiens (Human), UniProt P00533); assay: ErbB enzyme assay (CisBio HTRF KinEASE-TK), Assay 3; assay type: biochemical
Chain of EGFR (P00533 25-1210): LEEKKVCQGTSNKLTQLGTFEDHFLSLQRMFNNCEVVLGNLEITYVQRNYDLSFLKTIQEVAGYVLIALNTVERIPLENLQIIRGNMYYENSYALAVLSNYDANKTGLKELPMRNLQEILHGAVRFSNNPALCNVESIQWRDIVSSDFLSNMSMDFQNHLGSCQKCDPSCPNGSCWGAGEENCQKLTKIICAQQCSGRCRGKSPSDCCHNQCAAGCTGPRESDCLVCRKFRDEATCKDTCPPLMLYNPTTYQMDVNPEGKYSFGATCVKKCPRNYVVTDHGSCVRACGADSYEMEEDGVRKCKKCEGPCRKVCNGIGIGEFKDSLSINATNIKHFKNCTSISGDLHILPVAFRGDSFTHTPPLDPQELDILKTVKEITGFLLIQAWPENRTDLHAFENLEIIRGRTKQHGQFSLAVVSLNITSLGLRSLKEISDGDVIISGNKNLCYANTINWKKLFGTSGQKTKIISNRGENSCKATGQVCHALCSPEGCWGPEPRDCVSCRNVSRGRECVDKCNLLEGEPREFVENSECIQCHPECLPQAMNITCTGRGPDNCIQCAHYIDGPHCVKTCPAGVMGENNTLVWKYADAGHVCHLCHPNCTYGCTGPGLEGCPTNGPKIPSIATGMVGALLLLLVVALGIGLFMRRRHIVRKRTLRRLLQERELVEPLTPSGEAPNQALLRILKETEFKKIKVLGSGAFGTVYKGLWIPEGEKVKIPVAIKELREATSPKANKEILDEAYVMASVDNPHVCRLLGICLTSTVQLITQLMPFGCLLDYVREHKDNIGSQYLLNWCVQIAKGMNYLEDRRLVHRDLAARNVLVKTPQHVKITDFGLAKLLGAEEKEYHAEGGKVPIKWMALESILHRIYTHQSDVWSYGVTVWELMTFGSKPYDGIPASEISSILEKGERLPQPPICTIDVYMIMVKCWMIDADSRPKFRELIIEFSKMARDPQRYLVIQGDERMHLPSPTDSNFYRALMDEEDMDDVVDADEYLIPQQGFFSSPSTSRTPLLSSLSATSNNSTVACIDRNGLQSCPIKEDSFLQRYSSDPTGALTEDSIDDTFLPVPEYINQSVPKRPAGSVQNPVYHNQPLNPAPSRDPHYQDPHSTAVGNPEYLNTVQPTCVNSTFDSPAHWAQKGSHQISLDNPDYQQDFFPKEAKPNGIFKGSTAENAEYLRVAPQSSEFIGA
Procedure, shortened: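 Kinase + 250 nM biotin TK-substrate, 1 mM ATP, cpd (3-fold dil.), HEPES pH 7.4/10 mM MgCl2/0.01% Triton/2% DMSO; 30 min 22 °C. Quench w/ Sa-XL665 + TK-Ab-Cryptate, 1 h, HTRF. IC50 = 50 POC on 4PL fit.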

[3] = target: EGFR wild type (EGFR WT) (Homo sapiens (Human), UniProt P00533); assay: Cellular phosphorylation assay, EGF-stimulated EGFR phosphorylation in engineered NIH 3T3 cells, Phospho-EGFR DuoSet IC ELISA, Assay 5; assay type: cell-based
Chain of EGFR wild type (EGFR WT) (P00533 25-1210): as above
Procedure, shortened: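 NIH 3T3 cells expressing EGFR WT (20,000/well, attached overnight) were exposed to serially diluted compound for 1 h at 37 °C, then stimulated with 100 ng/ml rEGF for 10 min. Phospho-EGFR in lysates measured by sandwich ELISA optical density; IC50 from curves.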

[4] = target: MDR1 (P-gp) (Homo sapiens (Human), UniProt P08183); assay: MDR1 transfected LLC-PK1 permeability/efflux, Assay 6; settings: pig
[5] = target: ErbB2 with Exon 20 YVMA insertion (HER2-YVMA) (Homo sapiens (Human), UniProt P04626, INS775YVMA); assay: Cellular phosphorylation assay, constitutive ErbB2 phosphorylation (Y1196) in engineered NIH 3T3 cells, Assay 4; assay type: cell-based
Chain of ErbB2 with Exon 20 YVMA insertion (HER2-YVMA) (P04626 other isoform, or with tags, fused parts or gaps ins YVMA behind 775): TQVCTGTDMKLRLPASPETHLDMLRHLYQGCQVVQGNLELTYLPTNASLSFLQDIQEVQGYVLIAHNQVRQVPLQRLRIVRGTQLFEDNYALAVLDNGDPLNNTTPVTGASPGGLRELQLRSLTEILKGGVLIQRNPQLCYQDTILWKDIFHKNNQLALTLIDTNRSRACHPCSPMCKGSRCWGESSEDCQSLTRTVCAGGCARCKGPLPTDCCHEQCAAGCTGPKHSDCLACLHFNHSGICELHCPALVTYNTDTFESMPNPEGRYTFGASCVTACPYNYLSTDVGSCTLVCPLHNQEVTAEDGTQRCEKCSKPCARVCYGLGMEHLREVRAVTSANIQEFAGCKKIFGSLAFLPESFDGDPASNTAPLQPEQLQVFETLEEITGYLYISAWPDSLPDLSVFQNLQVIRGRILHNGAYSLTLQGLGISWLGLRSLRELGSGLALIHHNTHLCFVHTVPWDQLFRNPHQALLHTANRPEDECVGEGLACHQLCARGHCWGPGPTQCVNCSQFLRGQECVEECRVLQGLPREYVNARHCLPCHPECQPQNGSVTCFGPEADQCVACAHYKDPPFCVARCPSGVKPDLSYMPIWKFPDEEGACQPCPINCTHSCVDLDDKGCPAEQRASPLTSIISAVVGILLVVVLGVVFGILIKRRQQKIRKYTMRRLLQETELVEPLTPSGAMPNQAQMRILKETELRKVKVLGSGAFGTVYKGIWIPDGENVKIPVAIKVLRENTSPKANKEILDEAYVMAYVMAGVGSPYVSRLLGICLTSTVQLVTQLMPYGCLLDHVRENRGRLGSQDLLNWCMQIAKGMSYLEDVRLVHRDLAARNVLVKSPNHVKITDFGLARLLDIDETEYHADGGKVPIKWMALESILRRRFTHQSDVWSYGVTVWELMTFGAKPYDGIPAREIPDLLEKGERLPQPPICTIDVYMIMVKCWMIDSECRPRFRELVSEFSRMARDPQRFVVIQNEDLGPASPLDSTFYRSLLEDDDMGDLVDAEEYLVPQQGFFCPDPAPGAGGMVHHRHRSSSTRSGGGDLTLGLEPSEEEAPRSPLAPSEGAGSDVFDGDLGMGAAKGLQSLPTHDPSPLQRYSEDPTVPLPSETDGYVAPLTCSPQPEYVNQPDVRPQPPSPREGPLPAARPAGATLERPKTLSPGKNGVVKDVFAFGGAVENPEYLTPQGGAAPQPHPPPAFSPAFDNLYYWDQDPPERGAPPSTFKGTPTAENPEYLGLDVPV
Procedure, shortened: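 Engineered NIH 3T3 cells expressing HER2-YVMA treated with compounds 1 h at 37 °C, then formaldehyde-fixed and methanol-permeabilized. pErbB2 Y1196 detected by in-cell infrared immunofluorescence, normalized to GAPDH. IC50 from the normalized curves.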

[6] = target: BCRP (Homo sapiens (Human), UniProt Q9UNQ0); assay: BCRP transfected MDCKII canine Mdr1 knockout permeability/efflux, Assay 9; settings: dog
Chain of BCRP (Q9UNQ0 whole entry): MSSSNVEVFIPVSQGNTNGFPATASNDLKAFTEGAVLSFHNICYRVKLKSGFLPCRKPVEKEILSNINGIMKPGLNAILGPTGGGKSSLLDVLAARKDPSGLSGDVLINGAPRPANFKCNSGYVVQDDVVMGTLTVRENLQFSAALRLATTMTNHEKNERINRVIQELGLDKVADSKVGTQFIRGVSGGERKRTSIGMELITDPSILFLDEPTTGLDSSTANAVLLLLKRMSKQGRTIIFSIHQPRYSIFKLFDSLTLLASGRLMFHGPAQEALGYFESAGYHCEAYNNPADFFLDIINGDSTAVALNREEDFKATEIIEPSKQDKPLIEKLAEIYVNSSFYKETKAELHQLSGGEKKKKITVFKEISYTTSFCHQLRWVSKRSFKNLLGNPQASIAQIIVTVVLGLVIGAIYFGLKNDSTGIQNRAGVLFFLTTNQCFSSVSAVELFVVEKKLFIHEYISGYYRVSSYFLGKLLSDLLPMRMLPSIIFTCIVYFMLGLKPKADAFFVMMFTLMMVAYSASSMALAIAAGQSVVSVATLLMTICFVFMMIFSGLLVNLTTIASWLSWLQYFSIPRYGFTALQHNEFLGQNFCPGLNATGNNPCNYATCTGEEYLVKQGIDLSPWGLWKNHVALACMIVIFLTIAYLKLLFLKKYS
Method: BCRP transfected MDCKII cells (Assay 8) and BCRP transfected MDCKII canine Mdr1 knockout cells (Assay 9) were cultured and plated according to manufacturer's recommendations.
Both positive and negative controls were used to assess functionality of P-gp or BCRP efflux in the assays. Stock solutions for assay controls and the test article were prepared in DMSO for final test concentration of 1 μM. Final organic concentration in the assay was 1%. All dosing solutions contained 10 μM lucifer yellow to monitor MDCKII cell monolayer integrity.
For the apical to basolateral determination (A to B), 75 μL of the test article in transport buffer were added to the apical side of the individual transwells and 250 μL of basolateral media, without compound or lucifer yellow, were added to each well. For the basolateral to apical determination (B to A), 250 μL of test article in transport buffer were added to each well and 75 μL transport buffer, without compound or lucifer yellow, were added to each transwell. All tests were performed in triplicate, and each compound was tested for both apical to basolateral and basolateral to apical transport. The plates were incubated for 2 hours on a Lab-Line Instruments Titer Orbital Shaker (VWR, West Chester, PA) at 50 rpm and 37° C. with 5% CO2. All culture plates were removed from the incubator, 50 μL of media were removed from the apical and basolateral portion of each well, and added to 150 μL of 1 μM labetalol in 2:1 acetonitrile (ACN): H2O, v/v.
The plates were read using a Molecular Devices (Sunnyvale, CA) Gemini Fluorometer to evaluate the lucifer yellow concentrations at excitation/emission wavelengths of 425/535 nm. […] The plates were sealed, and the contents of each well analyzed by LC MS/MS. The compound concentrations were determined from the ratio of the peak areas of the compound to the internal standard (labetalol) in comparison to the dosing solution.
A MDS Sciex API 4000 (Applied Biosystems, Foster City, CA) mass spectrometer was used for detection of the analytes in the ion spray positive mode. Analyte responses were measured by multiple reaction monitoring (“MRM”) of transitions unique to each compound (the protonated precursor ion and selected product ions for each test article and m/z 329 to m/z 162 for labetalol, the internal standard.
The total run time, including re-equilibration, for a single injection was 1.2 minutes. […] The total run time, including re-equilibration, for a single injection was 0.61 minutes.
An efflux ratio is calculated from the mean apical to basolateral (A-B) Papp data and basolateral to apical (B-A) Papp data: Efflux ratio=Papp(B−A)/Papp(A−B)

[7] = target: ErbB2 insYVMA (HER2-YVMA, SEQ ID NO: 2) (Homo sapiens, UniProt P04626, INS775YVMA/P1170A); assay: biochemical; settings: ErbB2 insYVMA enzyme assay
[8] = LLC-PK1, Assay 6 Pe Ratio, efflux ratio Papp(B-A)/Papp(A-B), MDR1 transfected LLC-PK1
[9] = Assay 9 Pe Ratio, efflux ratio Papp(B-A)/Papp(A-B), BCRP transfected MDCKII canine Mdr1 knockout

Structure (SMILES) | IC50 [1] | IC50 [2] | IC50 [3] | efflux ratio at 2 h, 1 μM [4, 8] | IC50 [5] | efflux ratio at 2 h, 1 μM [6, 9] | IC50 ([7]; read-out: Assay 1 IC50) | IC50 ([7]; Assay 1 IC50 (nM)) | efflux ratio at 2 h, 1 μM ([4]; LLC-PK1) | efflux ratio at 2 h, 1 μM [6]
Cc1cc(Nc2ncnc3cnc(-c4ccncc4)nc23)ccc1Oc1ccc2c(c1)ncn2C [Example 47, N-(3-methyl-4-((1-methyl-1H-benzo[d]imidazol-5-yl)oxy)phenyl)-6-(pyridin-4-yl)pyrimido[5,4-d]pyrimidin-4-amine bis(2,2,2-trifluoroacetate)] | 0.091 µM | ≥ 10 µM | ≥ 5 µM | 1.1 | 0.0134 µM | 2.3 | 59.6 nM | – | – | –
Cc1cc(Nc2ncnc3cnc(N4C[C@H]5C[C@@H]4CO5)nc23)ccc1Oc1ccc2c(c1)ncn2C [Example 262] | 0.116 µM | ≥ 10 µM | ≥ 5 µM | 1.7 | 0.044 µM | 2.7 | 22.3 nM | – | – | –
Cc1cc(Nc2ncnc3cnc(N4CCOCC4)nc23)c(F)cc1Oc1ccc2c(c1)ncn2C.O=C(O)C(F)(F)F [Example 78, N-(2-fluoro-5-methyl-4-((1-methyl-1H-benzo[d]imidazol-5-yl)oxy)phenyl)-6-morpholinopyrimido[5,4-d]pyrimidin-4-amine 2,2,2-trifluoroacetate] | 0.422 µM | ≥ 10 µM | ≥ 5 µM | 1.3 | 0.0367 µM | 1.1 | – | 60.4 nM | – | –
[2H]C([2H])([2H])Nc1ncc2ncnc(Nc3ccc(Oc4ccc5c(c4)ncn5C)c(C)c3)c2n1 [Example 65, N2-(methyl-d3)-N8-(3-methyl-4-((1-methyl-1H-benzo[d]imidazol-5-yl)oxy)phenyl)pyrimido[5,4-d]pyrimidine-2,8-diamine] | 0.023 µM | 3 µM | ≥ 5 µM | 1.6 | 0.0088 µM | 1.9 | 8.6 nM | – | – | –
Cc1cc(Nc2ncnc3cnc(-c4cnco4)nc23)ccc1Oc1ccc2c(c1)ncn2C [Example 48, N-(3-methyl-4-((1-methyl-1H-benzo[d]imidazol-5-yl)oxy)phenyl)-6-(oxazol-5-yl)pyrimido[5,4-d]pyrimidin-4-amine] | 0.189 µM | ≥ 10 µM | ≥ 5 µM | 1.6 | 0.0485 µM | 7.2 | 56.6 nM | – | – | –
Cc1cc(Nc2ncnc3cnc(N4CCO[C@@H](C)C4)nc23)ccc1Oc1ccc2c(c1)ncn2C.O=C(O)C(F)(F)F [Example 74, (S)—N-(3-methyl-4-((1-methyl-1H-benzo[d]imidazol-5-yl)oxy)phenyl)-6-(2-methylmorpholino)pyrimido[5,4-d]pyrimidin-4-amine 2,2,2-trifluoroacetate] | 0.0355 µM | 3.72 µM | ≥ 5 µM | – | 0.0146 µM | – | – | 33 nM | 1.7 | 1.3
Cc1nc(-c2ncc3ncnc(Nc4ccc(Oc5ccc6c(c5)ncn6C)c(C)c4)c3n2)cs1 [Example 247] | 0.0969 µM | ≥ 10 µM | ≥ 5 µM | 1.6 | 0.0035 µM | 4.7 | 81.7 nM | – | – | –
Cc1cc(Nc2ncnc3cnc(N4CC[C@@H](C(F)F)C4)nc23)ccc1Oc1ccc2c(c1)ncn2C [Example 253] | 0.171 µM | ≥ 10 µM | ≥ 5 µM | 1.2 | 0.0393 µM | 2 | 93 nM | – | – | –
Cc1cc(Nc2ncnc3cnc(N4CC5(CCO5)C4)nc23)ccc1Oc1ccc2c(c1)ncn2C [Example 282] | 0.0839 µM | ≥ 10 µM | ≥ 5 µM | 1.9 | 0.0263 µM | 3.5 | 40 nM | – | – | –
CNc1ncc2ncnc(Nc3ccc(Oc4cc(F)c5c(c4)ncn5C)c(C)c3)c2n1 [Example 88, N8-(4-((7-fluoro-1-methyl-1H-benzo[d]imidazol-5-yl)oxy)-3-methylphenyl)-N2-methylpyrimido[5,4-d]pyrimidine-2,8-diamine] | 0.0086 µM | 9.48 µM | ≥ 5 µM | 1.9 | 0.0051 µM | 1 | 4.8 nM | – | – | –
[2H]c1nc(Nc2ccc(Oc3ccc4c(c3)ncn4C)c(C)c2)c2nc(N3CCOCC3)nc([2H])c2n1 [Example 68, N-(3-methyl-4-((1-methyl-1H-benzo[d]imidazol-5-yl)oxy)phenyl)-6-morpholinopyrimido[5,4-d]pyrimidin-2,8-d2-4-amine] | 0.0163 µM | 8.23 µM | ≥ 5 µM | 1.8 | 0.0107 µM | 0.9 | 10.2 nM | – | – | –
Cc1cc(Nc2ncnc3cnc(N4C[C@H]5C[C@@H]4CO5)nc23)ccc1Oc1cc(F)c2c(c1)ncn2C [Example 204, 6-((1R,4R)-2-oxa-5-azabicyclo[2.2.1]heptan-5-yl)-N-(4-((7-fluoro-1-methyl-1H-benzo[d]imidazol-5-yl)oxy)-3-methylphenyl)pyrimido[5,4-d]pyrimidin-4-amine] | 0.108 µM | 8.06 µM | ≥ 5 µM | 1.3 | 0.0131 µM | 1.2 | 31.9 nM | – | – | –
Cc1cc(Nc2ncnc3cnc(N4CC5C(C4)C5(F)F)nc23)ccc1Oc1ccc2c(c1)ncn2C (stereo not drawn) [Example 234] | 0.165 µM | ≥ 10 µM | ≥ 5 µM | 1.8 | 0.0391 µM | 5.2 | 104 nM | – | – | –
Cn1cnc2cc(Oc3ccc(Nc4ncnc5cnc(N6CCOCC6)nc45)cc3F)ccc21.O=C(O)C(F)(F)F [Example 80, N-(3-fluoro-4-((1-methyl-1H-benzo[d]imidazol-5-yl)oxy)phenyl)-6-morpholinopyrimido[5,4-d]pyrimidin-4-amine 2,2,2-trifluoroacetate] | 0.431 µM | ≥ 10 µM | ≥ 5 µM | 2.1 | 0.0471 µM | 2.4 | – | 35.6 nM | – | –
CON1CCN(c2ncc3ncnc(Nc4ccc(Oc5ccc6c(c5)ncn6C)c(C)c4)c3n2)CC1 [Example 35, 6-(4-methoxypiperazin-1-yl)-N-(3-methyl-4-((1-methyl-1H-benzo[d]imidazol-5-yl)oxy)phenyl)pyrimido[5,4-d]pyrimidin-4-amine] | 0.0942 µM | ≥ 10 µM | ≥ 5 µM | 1.3 | 0.0078 µM | 1.2 | 33.5 nM | – | – | –
Cc1cc(Nc2ncnc3cnc(N4CCC45COC5)nc23)ccc1Oc1cc(F)c2c(c1)ncn2C [Example 216, N-(4-((7-fluoro-1-methyl-1H-benzo[d]imidazol-5-yl)oxy)-3-methylphenyl)-6-(6-oxa-1-azaspiro[3.3]heptan-1-yl)pyrimido[5,4-d]pyrimidin-4-amine] | 0.0486 µM | 2.36 µM | ≥ 5 µM | – | 0.0157 µM | – | 33.2 nM | – | 1.7 | 0.9
Cc1cc(Nc2ncnc3cnc(N4C(C)CCS4(=O)=O)nc23)ccc1Oc1ccc2c(c1)ncn2C.O=C(O)C(F)(F)F (stereo not drawn) [Example 79, 3-methyl-2-(8-((3-methyl-4-((1-methyl-1H-benzo[d]imidazol-5-yl)oxy)phenyl)amino)pyrimido[5,4-d]pyrimidin-2-yl)isothiazolidine 1,1-dioxide 2,2,2-trifluoroacetate] | 0.0338 µM | 3.49 µM | ≥ 5 µM | 7.1 | 0.0077 µM | 9.8 | – | 26.3 nM | – | –
Cc1cc(Nc2ncnc3cnc(N4CCC4)nc23)ccc1Oc1ccc2c(c1)ncn2C [Example 36, 6-(azetidin-1-yl)-N-(3-methyl-4-((1-methyl-1H-benzo[d]imidazol-5-yl)oxy)phenyl)pyrimido[5,4-d]pyrimidin-4-amine] | 0.0646 µM | 9 µM | ≥ 5 µM | 1.2 | 0.0416 µM | 0.9 | 26.3 nM | – | – | –
